Patent US11179424B2, “Hyaluronic acid production promoting agent” (Pharma Foods International Co., Ltd., priority 2015, dated 2021)

Tests used:
Col X mRNA in ATDC5 = assay: Cartilage differentiation-related gene expression in chondrogenic cells: Col X (Test Example 7); assay type: cell-based, mouse; settings: 500 μM, insulin 0.1 μg/mL, 3 days, normalized to GAPDH, FIG. 22
Experimental: (§1) The mouse chondrogenic cell line ATDC5 (RIKEN BRC No. RCB0565) was cultured until subconfluence at 37° C. in an atmosphere of 5 vol % CO2 and 95 vol % air in DMEM/F-12 medium supplemented with 5% (w/w) FBS, 1% (w/w) penicillin-streptomycin solution, 5 μg/mL transferrin, and 3×10^−8 M sodium selenite. The cells were collected by trypsin treatment. The collected cells were suspended in fresh DMEM/F-12 medium with the same supplements as above to give a cell suspension (10×10^4 cells/mL). The cell suspension was seeded at a volume of 500 μL in each well of a 24-well plate, and the cells were precultured at 37° C. in an atmosphere of 5 vol % CO2 and 95 vol % air for 2 days. The medium in each well was replaced with fresh DMEM/F-12 medium containing the same supplements as above and the Phe-Hyp dipeptide (at a final concentration of 500 μM) and insulin (at a final concentration of 0.1 μg/mL), and the cells were cultured for 3 days. As a positive control, 10 μg/mL insulin was used. At end of culture, total RNA extraction and cDNA synthesis were performed, the relative mRNA expression levels of cartilage differentiation-related genes were quantified by real-time PCR and were normalized to the GAPDH mRNA expression level, and the results were evaluated. […]

[1] = test system: ex vivo mouse knee joints; assay: Ex vivo hyaluronic acid production in knee joints of mice (Test Example 8); settings: 1 mg/mL, one day incubation, ELISA, FIG. 24
Experimental: DMEM/F-12 medium supplemented with 1 mg/mL Phe-Hyp dipeptide, 5% (w/w) FBS, 1% (w/w) penicillin-streptomycin solution, 5 μg/mL transferrin, and 3×10^−8 M sodium selenite was added to each well of a 24-well plate at a volume of 1 mL per well. The femur and tibia were harvested from the right and left hind legs of ddY mice (female, retired). The synovial membrane was incised to expose the cartilage, and the bones were placed in each well so that only the joint was immersed in the medium. The bones were incubated at 37° C. in an atmosphere of 5 vol % CO2 and 95 vol % air for one day. At end of incubation, the supernatants were recovered and centrifuged at 1500×g at 4° C. for 30 minutes. The supernatants were recovered, the amount of hyaluronic acid was measured by ELISA and the results were evaluated. The amount of the hyaluronic acid in the sample addition group was expressed in terms of a relative value, with the amount of hyaluronic acid in the no sample group taken as 100.

SOX9 mRNA in ATDC5 = assay: Cartilage differentiation-related gene expression in chondrogenic cells: SOX9 (Test Example 7); assay type: cell-based, mouse; settings: 500 μM, insulin 0.1 μg/mL, 3 days, normalized to GAPDH, FIG. 20
Experimental: as §1

Acan mRNA in ATDC5 = assay: Cartilage differentiation-related gene expression in chondrogenic cells: Acan (Test Example 7); assay type: cell-based, mouse; settings: 500 μM, insulin 0.1 μg/mL, 3 days, normalized to GAPDH, FIG. 21
Experimental: as §1

has2 mRNA in ATDC5 = assay: Cartilage differentiation-related gene expression in chondrogenic cells: has2 (Test Example 7); assay type: cell-based, mouse; settings: 500 μM, insulin 0.1 μg/mL, 3 days, normalized to GAPDH, FIG. 23
Experimental: as §1

[2] = test system: mouse chondrogenic cell line ATDC5; assay: Cartilage matrix production by chondrogenic cells, Alcian blue (Test Example 6); assay type: cell-based; settings: 500 μM, insulin 0.1 μg/mL, 14 days, FIG. 19
Experimental: The mouse chondrogenic cell line ATDC5 (RIKEN BRC No. RCB0565) was cultured until subconfluence at 37° C. in an atmosphere of 5 vol % CO2 and 95 vol % air in DMEM/F-12 medium supplemented with 5% (w/w) FBS, 1% (w/w) penicillin-streptomycin solution, 5 μg/mL transferrin, and 3×10^−8M sodium selenite. The cells were collected by trypsin treatment. The collected cells were suspended in fresh DMEM/F-12 medium with the same supplements as above to give a cell suspension (50×10^4 cells/mL). The cell suspension was spot-seeded at a volume of 20 μL in each well of a 24-well plate, and the cells were precultured at 37° C. in an atmosphere of 5 vol % CO2 and 95 vol % air for 3 hours. The medium in each well was replaced with fresh DMEM/F-12 medium containing the same supplements as above and the Phe-Hyp dipeptide (at a final concentration of 500 μM) and insulin (at a final concentration of 0.1 μg/mL), and the cells were cultured for 14 days. The cartilage matrix produced by the chondrogenic cells was stained with Alcian blue staining solution, the stained cartilage matrix was quantified with Image J (National Institutes of Health), and the results were evaluated. The amount of the cartilage matrix produced by the chondrogenic cells in the sample addition group was expressed in terms of a relative value, with the amount of the cartilage matrix in the no sample group taken as 100.

Question: Which “Col X mRNA expression level” value (Col X mRNA in ATDC5) does the source give for `N[C@@H](Cc1ccccc1)C(=O)N1CC(O)C[C@H]1C(=O)O` (stereo partly drawn) [Phe-Hyp dipeptide, phenylalanyl-4-hydroxyproline] here?
Answer: Its value is “enhanced the expression”.

Question: What about the “amount of hyaluronic acid produced in ex vivo mouse knee joints” value [1] of the same compound?
Answer: The value was “promoted ex vivo hyaluronic acid production”.

Question: What about the “SOX9 mRNA expression level” value (SOX9 mRNA in ATDC5) of the same compound?
Answer: The value was “enhanced the expression”.

Question: And the “Acan mRNA expression level” value (Acan mRNA in ATDC5)?
Answer: The value was “enhanced the expression”.

Question: What about the “has2 mRNA expression level” value (has2 mRNA in ATDC5) of the same compound?
Answer: The value was “enhanced the expression”.

Question: And the “cartilage matrix production by chondrogenic cells (Alcian blue)” value [2]?
Answer: The value was “promoted cartilage matrix production”.
